What was measured:
Type in all cases: in vivo
Abutilon theophrasti [1] = test: Greenhouse pre-emergence (PRE) herbicidal test on ABUTH; settings: PRE, 20 DAT; for % activity solo application: ABUTH
Method in brief: (§1)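 Scoring ran from 0 (normal growth) to 100 (no emergence or above-ground parts fully destroyed) and was done 20 DAT. Application was pre-emergent in pots of loamy sand (~3.0% humus) sown per species. Plants grew at 10-25° C or 20-35° C by species.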

Amaranthus retroflexus = test: Greenhouse pre-emergence (PRE) herbicidal test on AMARE; settings: PRE, 20 DAT; for % activity solo application: AMARE
Procedure: The culture containers used were plastic pots containing loamy sand with approximately 3.0% of humus as substrate. The seeds of the test plants were sown separately for each species.
The containers were irrigated gently to promote germination and growth and subsequently covered with transparent plastic hoods until the plants had rooted.
Depending on the species, the plants were kept at 10-25° C. and 20-35° C., respectively.
The test period extended over 2 to 4 weeks. During this time, the plants were tended and their response to the individual treatments was evaluated.
Evaluation was carried out using a scale from 0 to 100. 100 means no emergence of the plants, or complete destruction of at least the above-ground parts, and 0 means no damage or normal course of growth. A good herbicidal activity is given at values of at least 70, and very good herbicidal activity is given at values of at least 85.
As indicated application was either post emergent (POST) at the respective growth stage (GS) of the weed (BBCH code), or pre-emergent (PRE). […]

Ambrosia artemisiifolia = test: Greenhouse pre-emergence (PRE) herbicidal test on AMBEL; settings: 20 DAT; for % activity solo application: AMBEL
Commelina benghalensis = test: Greenhouse pre-emergence (PRE) herbicidal test on COMBE; settings: 20 DAT; for % activity solo application: COMBE
Method in brief: as §1

Euphorbia heterophylla [2] = test: Greenhouse pre-emergence (PRE) herbicidal test on EPHHL; settings: 20 DAT; for % activity solo application: EPHHL
Method in brief: as §1

Lolium multiflorum = test: Greenhouse pre-emergence (PRE) herbicidal test on LOLMU; settings: 20 DAT
Method in brief: as §1

Setaria viridis = test: Greenhouse pre-emergence (PRE) herbicidal test on SETVI; settings: PRE, 20 DAT; for % activity solo application: SETVI
Method in brief: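 Visual rating on a 0 (normal growth) to 100 (no emergence or above-ground kill) scale at 20 DAT. Treatment was pre-emergence spray of aqueous suspension/emulsion right after sowing into loamy sand with ~3.0% humus; covered until rooted, grown at 10-25° C or 20-35° C depending on species.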

Digitaria sanguinalis = test: Greenhouse post-emergence (POST) herbicidal test on DIGSA; settings: 20 DAT; for % activity solo application: DIGSA
Method in brief: (§2)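 Plants grown in pots of loamy sand (~3.0% humus) to 3–15 cm height, then sprayed with compounds suspended or emulsified in water (formulated as 5% by weight emulsion concentrate). Kept at 10-25° C or 20-35° C by species; injury scored 0–100 (100 = complete destruction) at 20 DAT.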

Echinochloa crus-galli [3] = test: Greenhouse post-emergence (POST) herbicidal test on ECHCG; settings: Echinochloa crus-galli, post-emergence, 480 h, 20 DAT
Method in brief: as §2

Euphorbia heterophylla [4] = test: Greenhouse post-emergence (POST) herbicidal test on EPHHL; settings: 20 DAT
Method in brief: as §2

Geranium pusillum = test: Greenhouse post-emergence (POST) herbicidal test on GERPU; settings: Geranium pusillum, post-emergence, 480 h, 20 DAT
Method in brief: as §2

Echinochloa crus-galli [5] = test: Greenhouse pre-emergence (PRE) herbicidal test on ECHCG; settings: PRE, 20 DAT; for % activity solo application: ECHCG
Alopecurus myosuroides = test: Greenhouse pre-emergence (PRE) herbicidal test on ALOMY; settings: PRE, ALOMY, 20 DAT
Method in brief: as §1

Abutilon theophrasti [6] = test: Greenhouse post-emergence (POST) herbicidal test on ABUTH; settings: POST, ABUTH, 16 gai/ha, 20 DAT
Method in brief: as §2

Compound: CCOC(=O)COc1ccccc1Oc1nc(-n2c(=O)cc(C(F)(F)F)n(C)c2=O)c(F)cc1Cl [2-[2-[[3-chloro-6-[3,6-dihydro-3-methyl-2,6-dioxo-4-(trifluoromethyl)-1(2H)-pyrimidinyl]-5-fluoro-2-pyridinyl]oxy]phenoxy]acetic acid ethyl ester]
- pest or weed control at […] (Abutilon theophrasti [1]; Abutilon theophrasti, pre-emergence, 480 h, 0.25 gai/ha): 0%
- pest or weed control at 0.5 g/ha (Abutilon theophrasti [1]; Abutilon theophrasti, pre-emergence, 480 h, 0.5 gai/ha): 10%
- pest or weed control at 0.5 g/ha (Amaranthus retroflexus; Amaranthus retroflexus, pre-emergence, 480 h, 0.5 gai/ha): 0%
- inhibition at […] (Ambrosia artemisiifolia; Ambrosia artemisiifolia, pre-emergence, 480 h, AMBEL PRE, use rate 0.25 gai/ha, read-out: % activity): 0%
- inhibition at 0.5 g/ha (Ambrosia artemisiifolia; Ambrosia artemisiifolia, pre-emergence, 480 h, AMBEL PRE, use rate 0.5 gai/ha, read-out: % activity): 0%
- pest or weed control at […] (Ambrosia artemisiifolia; Ambrosia artemisiifolia, pre-emergence, 480 h, PRE, 0.25 gai/ha): 0%
- inhibition at […] (Commelina benghalensis; Commelina benghalensis, pre-emergence, 480 h, COMBE PRE, use rate 0.25 gai/ha, read-out: % activity): 0%
- inhibition at 0.5 g/ha (Commelina benghalensis; Commelina benghalensis, pre-emergence, 480 h, COMBE PRE, use rate 0.5 gai/ha): 0%
- pest or weed control at 0.5 g/ha (Commelina benghalensis; Commelina benghalensis, pre-emergence, 480 h, PRE, 0.5 gai/ha): 0%
- inhibition at […] (Euphorbia heterophylla [2]; Euphorbia heterophylla, pre-emergence, 480 h, EPHHL PRE, use rate 0.25 gai/ha, read-out: % activity): 5%
- inhibition at 0.5 g/ha (Euphorbia heterophylla [2]; Euphorbia heterophylla, pre-emergence, 480 h, EPHHL PRE, use rate 0.5 gai/ha, read-out: % activity): 0%
- pest or weed control at […] (Euphorbia heterophylla [2]; Euphorbia heterophylla, pre-emergence, 480 h, PRE, 0.25 gai/ha): 5%
- pest or weed control at 0.5 g/ha (Euphorbia heterophylla [2]; Euphorbia heterophylla, pre-emergence, 480 h, PRE, 0.5 gai/ha): 0%
- inhibition at […] (Lolium multiflorum; Lolium multiflorum, pre-emergence, 480 h, LOLMU PRE, use rate 0.25 gai/ha, read-out: % activity): 0%
- pest or weed control at […] (Lolium multiflorum; Lolium multiflorum, pre-emergence, 480 h, PRE, 0.25 gai/ha): 0%
- pest or weed control at 0.5 g/ha (Lolium multiflorum; Lolium multiflorum, pre-emergence, 480 h, PRE, 0.5 gai/ha): 0%
- pest or weed control at […] (Setaria viridis; Setaria viridis, pre-emergence, 480 h, 0.25 gai/ha): 0%
- pest or weed control at 0.5 g/ha (Setaria viridis; Setaria viridis, pre-emergence, 480 h, 0.5 gai/ha): 0%
- inhibition at 0.5 g/ha (Digitaria sanguinalis; Digitaria sanguinalis, post-emergence, 480 h, DIGSA POST, use rate 0.5 gai/ha): 80%
- pest or weed control at […] (Digitaria sanguinalis; Digitaria sanguinalis, post-emergence, 480 h, POST, 0.25 gai/ha): 15%
- inhibition at […] (Echinochloa crus-galli [3]; ECHCG POST, use rate 0.25 gai/ha): 15%
- inhibition at 0.5 g/ha (Echinochloa crus-galli [3]; ECHCG POST, use rate 0.5 gai/ha, read-out: % activity): 80%
- inhibition at […] (Euphorbia heterophylla [4]; Euphorbia heterophylla, post-emergence, 480 h, EPHHL POST, use rate 0.25 gai/ha): 50%
- pest or weed control at […] (Euphorbia heterophylla [4]; Euphorbia heterophylla, post-emergence, 480 h, POST, 0.25 gai/ha): 50%
- inhibition at 0.5 g/ha (Geranium pusillum; GERPU POST, use rate 0.5 gai/ha): 85%
- pest or weed control at 0.5 g/ha (Geranium pusillum; POST, 0.5 gai/ha): 85%

Compound: COCc1cnc(C2=NC(C)(C(C)C)C(=O)N2)c(C(=O)O)c1 (centres unmarked) [Imazamox, imazamox]
- pest or weed control at 1 g/ha (Abutilon theophrasti [1]; Abutilon theophrasti, pre-emergence, 480 h, 1 gai/ha): 10%
- pest or weed control at 2 g/ha (Amaranthus retroflexus; Amaranthus retroflexus, pre-emergence, 480 h, 2 gai/ha): 25%
- pest or weed control at 1 g/ha (Ambrosia artemisiifolia; Ambrosia artemisiifolia, pre-emergence, 480 h, PRE, 1 gai/ha): 0%
- pest or weed control at 2 g/ha (Ambrosia artemisiifolia; Ambrosia artemisiifolia, pre-emergence, 480 h, PRE, 2 gai/ha, read-out: % activity): 0%
- pest or weed control at 1 g/ha (Commelina benghalensis; Commelina benghalensis, pre-emergence, 480 h, PRE, 1 gai/ha): 0%
- pest or weed control at 2 g/ha (Commelina benghalensis; Commelina benghalensis, pre-emergence, 480 h, PRE, 2 gai/ha, read-out: % activity): 0%
- pest or weed control at 1 g/ha (Echinochloa crus-galli [5]; Echinochloa crus-galli, pre-emergence, 480 h, 1 gai/ha): 0%
- pest or weed control at 1 g/ha (Euphorbia heterophylla [2]; Euphorbia heterophylla, pre-emergence, 480 h, PRE, 1 gai/ha): 10%
- pest or weed control at 2 g/ha (Euphorbia heterophylla [2]; Euphorbia heterophylla, pre-emergence, 480 h, PRE, 2 gai/ha): 15%
- pest or weed control at 1 g/ha (Lolium multiflorum; Lolium multiflorum, pre-emergence, 480 h, PRE, 1 gai/ha): 0%
- pest or weed control at 2 g/ha (Setaria viridis; Setaria viridis, pre-emergence, 480 h, 2 gai/ha): 5%
- pest or weed control at 2 g/ha (Digitaria sanguinalis; Digitaria sanguinalis, post-emergence, 480 h, POST, 2 gai/ha): 55%
- pest or weed control at 2 g/ha (Echinochloa crus-galli [3]; POST, 2 gai/ha): 55%
- pest or weed control at 1 g/ha (Euphorbia heterophylla [4]; Euphorbia heterophylla, post-emergence, 480 h, POST, 1 gai/ha): 10%
- pest or weed control at 2 g/ha (Euphorbia heterophylla [4]; Euphorbia heterophylla, post-emergence, 480 h, POST, 2 gai/ha): 10%

Compound: FC(F)c1cc(-c2c(Cl)cccc2Oc2ncc(Cl)cn2)on1 [Rimisoxafen, rimisoxafen]
- % activity solo application (Abutilon theophrasti [1]; 4 gai/ha): 0%
- % activity solo application (Abutilon theophrasti [1]; 8 gai/ha): 5%
- % activity solo application (Abutilon theophrasti [1]; 16 gai/ha): 5%
- % activity solo application (Abutilon theophrasti [1]; 32 gai/ha): 35%
- % activity solo application (Alopecurus myosuroides; 4 gai/ha): 0%
- % activity solo application (Alopecurus myosuroides; 8 gai/ha): 0%
- % activity solo application (Alopecurus myosuroides; 16 gai/ha): 0%
- % activity solo application (Alopecurus myosuroides; 32 gai/ha): 0%
- % activity solo application (Amaranthus retroflexus; 8 gai/ha): 25%
- % activity solo application (Amaranthus retroflexus; 16 gai/ha): 75%
- % activity solo application (Ambrosia artemisiifolia; PRE, 4 gai/ha): 0%
- % activity solo application (Ambrosia artemisiifolia; PRE, 8 gai/ha): 0%
- % activity solo application (Ambrosia artemisiifolia; PRE, 16 gai/ha): 0%
- % activity solo application (Ambrosia artemisiifolia; PRE, 32 gai/ha): 0%
- % activity solo application (Commelina benghalensis; PRE, 4 gai/ha): 0%
- % activity solo application (Commelina benghalensis; PRE, 8 gai/ha): 10%
- % activity solo application (Commelina benghalensis; PRE, 16 gai/ha): 0%
- % activity solo application (Commelina benghalensis; PRE, 32 gai/ha): 30%
- % activity solo application (Echinochloa crus-galli [5]; 4 gai/ha): 0%
- % activity solo application (Echinochloa crus-galli [5]; 8 gai/ha): 0%
- % activity solo application (Echinochloa crus-galli [5]; 16 gai/ha): 0%
- % activity solo application (Echinochloa crus-galli [5]; 32 gai/ha): 0%
- % activity solo application (Euphorbia heterophylla [2]; PRE, 8 gai/ha): 0%
- % activity solo application (Euphorbia heterophylla [2]; PRE, 16 gai/ha): 0%
- % activity solo application (Lolium multiflorum; PRE, LOLMU, 8 gai/ha): 0%
- % activity solo application (Setaria viridis; 8 gai/ha): 35%
- % activity solo application (Setaria viridis; 16 gai/ha): 35%
- % activity solo application (Abutilon theophrasti [6]): 80%
- % activity solo application (Digitaria sanguinalis; POST, 4 gai/ha): 5%
- % activity solo application (Digitaria sanguinalis; POST, 8 gai/ha): 5%
- % activity solo application (Digitaria sanguinalis; POST, 16 gai/ha): 10%
- % activity solo application (Digitaria sanguinalis; POST, 32 gai/ha): 20%
- % activity solo application (Euphorbia heterophylla [4]; POST, EPHHL, 16 gai/ha): 15%

— patent publication US20260007133A1, “HERBICIDAL COMPOSITION COMPRISING AZINE COMPOUNDS” (BASF SE, priority 2022, published 2026)
